Values joined by “and” are separate entries in the source; they are usually repeats but may differ in a detail not shown here. Equal entries are not always repeated.
Legend:
COX2 = assay: SphK1-mediated COX2 acetylation with [14C] acetyl-CoA (ATP competition, SphK1 mutants; Supplementary Fig 1h,i); type: biochemical, human; settings: COX2 +
From the text: Single point mutations in SphK1 (R56A, R57A, R24A, R185A, D178A, and F192A) and COX2 (S565A, N181A, T564A, and S567A) were generated using the In-Fusion Cloning Kits (Clontech) and ORF cDNA expression plasmids of human SphK1 and COX2 gene (Sino Biological Inc, HG15679-NH and HG12036-NH), according to the manufacturer’s instructions. The forward and reverse primers described in Supplementary Table 4. The SphK1 WT, SphK1 mutants, COX2 WT, and COX2 mutant plasmids were transformed in the One shot TOP 10 competent cell (Invitrogen). The bacteria were grown in Luria-Bertani (LB, Invitrogen) plates supplemented with 50 μg ml^−1 kanamycin (Sigma-Aldrich) at 37 °C. The bacterial cell pellets were resuspended in lysis buffer containing 20 mM sodium phosphate (GE Healthcare), 500 mM NaCl (GE Healthcare), 20 mM imidazole (pH 7.4) (GE Healthcare), 0.2 mg ml^−1 lysozyme (Sigma-Aldrich), 20 μg ml^−1 DNase I (Roche), 1 mM MgCl2 (Sigma-Aldrich), and 1 mM PMSF (Sigma-Aldrich) before being lysed by sonication and clarified by centrifugation at 15,493×g for 10 min. Proteins were purified from the soluble fraction using His-Spin Trap columns (GE Healthcare) and the binding and acetylation assays were performed.
Acetylation assays were performed according to previously described procedures with minor modifications. […] N-AS (2 μCi, ARC UK Ltd, ARC-1024) at 37 °C for 2 h. [^14C] aspirin (2 μCi, ARC UK Ltd, ARC-0473) was conducted as the positive control. The reactions were terminated by placing the reaction tubes in ice for 5 min. To evaluate in vivo neuronal and microglial COX2 acetylation, 10 μCi [^14C] N-AS was orally administrated to 9-months-old WT and APP/PS1 mice. After 1 h, neuron and microglia were isolated and sonicated in culture media. To immunoprecipitate acetylated COX2, the sample was incubated with COX2 antibody (Abcam, ab15191) at 4 °C for 24 h and precipitated by adding 50 μl of protein-A sepharose (GE Healthcare). Acetylated COX2 proteins bound to the beads were analyzed using a Tri-Carb 3110TR liquid scintillation counter (Perkin-Elmer).

APP/PS1 mice = assay: light-dark test (Supplementary Fig 7j-n); type: in vivo, mouse; settings: N-AS vs APP/PS1
Experimental: Transgenic mouse lines over-expressing the hAPP695swe (APP) and presenilin-1M146V (PS1) mutations were originated from GlaxoSmithKline (Harlow, UK)[32] and maintained as described previously. We purchased 5×FAD mice from Jackson Labs (Stock number. 34840-JAX). Because APP/PS1 and 5xFAD mice show sex differences in disease progression, we used only male mice. To examine possible therapeutic effect of N-AS and aspirin in APP/PS1 mice, the N-AS (30 mg kg^−1, Sigma-Aldrich, 01912) was injected daily s.c. for 8 weeks to 7-months-old APP/PS1 mice until the age of 9 months, and aspirin (2 mg kg^−1, Sigma-Aldrich, A5376)[33] was administrated orally to 7-months-old APP/PS1 mice for 8 weeks. […] Block randomization method was used to allocate the animals to experimental groups. To eliminate the bias, we were blinded in experimental progress such as data collection and data analysis. Mice were housed at temperature of 22 °C and a 12 h day/12 h night cycle with free access to tap water and food pellets. All protocols were approved by the Kyungpook National University Institutional Animal Care and Use Committee. […] Freezing was analyzed for 5 min. […] Overall activity in the box was measured, and the amount of time and distance traveled in the center arena was noted. […] The total number of transitions, latency to first enter the light chamber, distance traveled, and time spent in each chamber were recorded.

CC(=O)SCCNC(=O)CCNC(=O)[C@H](O)C(C)(C)COP(=O)(O)OP(=O)(O)OC[C@H]1O[C@@H](n2cnc3c(N)ncnc32)[C@H](O)[C@@H]1OP(=O)(O)O [Acetyl-CoA, acetyl-CoA]
COX2 acetylation with C14 Acetyl CoA (sFig 1i) (COX2; Acetyl transfer: SphK1, Sph, ATP, listed as C14 Acetyl CoA): 10456 and 10500 and 10758 and 10726
COX2 acetylation with C14 Acetyl CoA (sFig 1i) (COX2; Acetyl transfer: SphK1, Sph, listed as C14 Acetyl CoA): 19270 and 24354 and 19216 and 24474 and 19218 and 24370
COX2 acetylation with C14 Acetyl CoA (sFig 1i) (COX2; Acetyl transfer: SphK1, listed as C14 Acetyl CoA): 11878 and 13132 and 13238 and 13414 and 13230
COX2 acetylation with C14 Acetyl CoA (sFig 1i) (COX2; Acetyl transfer: SphK1 R24A, Sph, listed as C14 Acetyl CoA): 12532 and 11618 and 11452 and 12034 and 12526 and 12014
COX2 acetylation with C14 Acetyl CoA (sFig 1i) (COX2; Acetyl transfer: SphK1 R56A, Sph, listed as C14 Acetyl CoA): 9992 and 10060 and 9758 and 9780 and 9270 and 10086
COX2 acetylation with C14 Acetyl CoA (sFig 1i) (COX2; Acetyl transfer: SphK1 R57A, Sph, listed as C14 Acetyl CoA): 14380 and 14360 and 14338 and 14310 and 14334 and 14376
COX2 acetylation with C14 Acetyl CoA (sFig 1i) (COX2; Acetyl transfer: SphK1 R185A, Sph, listed as C14 Acetyl CoA): 10222 and 9944 and 10214 and 10110 and 9988
COX2 acetylation with C14 Acetyl CoA (sFig 1i) (COX2; C14 Acetyl CoA +, Acetyl transfer -): 2366 and 2614 and 2946 and 2710 and 2880 and 2156

CCCCCCCCCCCCC/C=C/[C@@H](O)[C@H](CO)NC(C)=O [N-AS, N-((2S,3R,E)-1,3-Dihydroxyoctadec-4-en-2-yl)acetamide]
light–dark test (APP/PS1 mice): did not differ between the groups

— publication PMC7217877, “N-AS-triggered SPMs are direct regulators of microglia in a model of Alzheimer’s disease” (Nature Communications, 2020)
